{"source": "patent US20250011331A1", "about": "(Nimbus Saturn, Inc., priority 2021, published 2025)", "note": "pIC50: −log10 of the molar value."}
{"biological_target": "T1, HPK1 (Homo sapiens, UniProt Q92918)", "T1 construct": "purchased Invitrogen", "T1 sequence (Q92918 whole entry)": "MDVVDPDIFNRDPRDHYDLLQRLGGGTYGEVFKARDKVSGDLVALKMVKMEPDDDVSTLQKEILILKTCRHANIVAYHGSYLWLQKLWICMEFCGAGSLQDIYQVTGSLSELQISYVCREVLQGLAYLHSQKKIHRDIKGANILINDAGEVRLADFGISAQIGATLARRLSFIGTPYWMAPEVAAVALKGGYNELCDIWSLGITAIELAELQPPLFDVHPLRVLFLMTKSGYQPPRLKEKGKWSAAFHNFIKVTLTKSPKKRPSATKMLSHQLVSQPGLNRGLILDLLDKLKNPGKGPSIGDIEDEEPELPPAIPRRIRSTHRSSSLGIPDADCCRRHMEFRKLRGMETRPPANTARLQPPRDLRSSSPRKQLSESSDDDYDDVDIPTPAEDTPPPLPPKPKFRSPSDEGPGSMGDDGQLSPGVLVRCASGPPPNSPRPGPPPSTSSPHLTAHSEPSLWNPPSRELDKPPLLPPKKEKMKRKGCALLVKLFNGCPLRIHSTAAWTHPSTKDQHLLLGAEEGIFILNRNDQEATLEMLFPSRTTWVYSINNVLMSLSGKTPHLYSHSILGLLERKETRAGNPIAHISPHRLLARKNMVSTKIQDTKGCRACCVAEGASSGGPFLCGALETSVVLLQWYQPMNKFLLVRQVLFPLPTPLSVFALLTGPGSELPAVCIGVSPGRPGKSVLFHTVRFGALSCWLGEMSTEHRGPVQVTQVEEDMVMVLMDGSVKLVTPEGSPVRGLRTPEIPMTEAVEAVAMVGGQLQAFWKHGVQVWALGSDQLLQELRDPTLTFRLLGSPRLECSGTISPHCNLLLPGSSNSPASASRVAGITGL", "assay": "HPK1 biochemical enzyme assay (microfluidic mobility shift)", "conditions": "1.5 nM HPK1 (Invitrogen), 1 mM ATP, 30 min preincubation, 60 min at RT, Caliper EZ Reader", "protocol": "HPK1 biochemical enzyme assay: HPK1 enzyme inhibition was measured using a microfluidic mobility shift assay. Reactions were performed in a 384-well plate, containing 1.5 nM HPK1 (Invitrogen), in assay buffer (Cama Biosciences; pH 7.4). Test compounds were titrated in ten point curves (top final assay concentration 3 μM), and preincubated with enzyme/substrate mix for 30 min prior to initiation of the reaction by addition of ATP (1 mM final concentration) and substrate (1 μM final concentration; Carna Biosciences) diluted in assay buffer supplemented by MgCl2 (final assay concentration of 5 mM). Following 60 min incubation at RT, the reaction was terminated by addition of 60 μl/well termination buffer (Carna Biosciences) and signal determination using a Caliper EZ Reader (Perkin Elmer, UK)."}
{"smiles": "CN1CCN(C(=O)[C@H]2CCOC2)c2ccc(Nc3ccc(-c4cnc5cc(F)ccn45)c4c3C(=O)NC4)nc2C1", "note": "(single isomer, unassigned) [Compound I-18]", "pIC50": "6.00 to 7.00"}
{"smiles": "CN(C)Cc1cc(C2CCOCC2)cc(Nc2ccc(-c3cnc4cc(F)ccn34)c3c2C(=O)NC3)n1", "note": "[Compound I-39, 7-((6-((dimethylamino)methyl)-4-(tetrahydro-2H-pyran-4-yl)pyridin-2-yl)amino)-4-(7-fluoroimidazo[1,2-a]pyridin-3-yl)isoindolin-1-one]", "pIC50": "≥ 7.00"}
{"smiles": "CN(C)Cc1nc(Nc2ccc(-c3cnc4cc(F)ccn34)c3c2C(=O)NC3)ccc1[C@@H]1CC[C@H](O)C1", "note": "[Compound I-2, 7-((6-((dimethylamino)methyl)-5-((1R,3S)-3-hydroxycyclopentyl)pyridin-2-yl)amino)-4-(7-fluoroimidazo[1,2-a]pyridin-3-yl)isoindolin-1-one]", "pIC50": "≥ 7.00"}
{"smiles": "CN(C)Cc1nc(Nc2ccc(-c3cnc4cc(F)ccn34)c3c2C(=O)NC3)ccc1C(C)(C)N1CCOCC1=O", "note": "[Compound I-25]", "pIC50": "≥ 7.00"}
{"smiles": "CN(C)Cc1nc(Nc2ccc(-c3cnc4cc(F)ccn34)c3c2C(=O)NC3)ccc1[C@@H]1COCCO1", "note": "(single isomer, unassigned) [Compound I-15]", "pIC50": "≥ 7.00"}
{"smiles": "CN(C)Cc1nc(Nc2ccc(-c3cnc4cnccn34)c3c2C(=O)NC3)ccc1OCC1CCC(F)(F)CC1", "note": "[Compound I-11]", "pIC50": "≥ 7.00"}
{"smiles": "CN(C)Cc1nc(Nc2ccc(-c3cnc4cc(F)ccn34)c3c2C(=O)NC3)ccc1C1CCCC1", "note": "[Compound I-22]", "pIC50": "≥ 7.00"}
{"smiles": "C[C@@H](O)c1ccc(Nc2ccc(-c3cnc4cc(F)ccn34)c3c2C(=O)NC3)nc1CN(C)C", "note": "[Compound I-9, (R)-7-((6-((dimethylamino)methyl)-5-(1-hydroxyethyl)pyridin-2-yl)amino)-4-(7-fluoroimidazo[1,2-a]pyridin-3-yl)isoindolin-1-one]", "pIC50": "≥ 7.00"}
{"smiles": "C[C@H](OC1CCOCC1)c1ccc(Nc2ccc(-c3cnc4cc(F)ccn34)c3c2C(=O)NC3)nc1CN(C)C", "note": "(single isomer, unassigned) [Compound I-26]", "pIC50": "≥ 7.00"}
{"smiles": "CN(C)Cc1nc(Nc2ccc(-c3cnc4cc(C#N)ccn34)c3c2C(=O)NC3)ccc1C1CCOC1", "note": "(stereo not shown) [Compound I-47, 3-[7-[[6-[(dimethylamino)methyl]-5-tetrahydrofuran-3-yl-2-pyridyl]amino]-1-oxo-isoindolin-4-yl]imidazo[1,2-a]pyridine-7-carbonitrile]", "pIC50": "≥ 7.00"}
